Drawing on patent US20240140957A1, “BRIDGED COMPOUNDS AS KRAS G12D INHIBITOR AND DEGRADER AND THE USE THEREOF” (BeiGene Switzerland GmbH, priority 2021, published 2024), this text covers IC50 for 23 molecules.

A word on the IC50: it is the concentration that inhibits the measured activity by half.

The test addresses GDP-loaded KRAS G12D (Homo sapiens, UniProt P01116, G12D). As to the kind of experiment: KRAS G12D Probe Displacement Assay. Format: binding. To be noted: KRAS G12D 0.5 nM, biotinylated probe 2 4 nM; Table 6 letters; read-out: KRAS G12D Probe Displacement Assay IC50 (class).

A value given as a limit tells only on which side of the number the result lay.

Sequence of GDP-loaded KRAS G12D (P01116 1-188 isoform P01116-2 G12D): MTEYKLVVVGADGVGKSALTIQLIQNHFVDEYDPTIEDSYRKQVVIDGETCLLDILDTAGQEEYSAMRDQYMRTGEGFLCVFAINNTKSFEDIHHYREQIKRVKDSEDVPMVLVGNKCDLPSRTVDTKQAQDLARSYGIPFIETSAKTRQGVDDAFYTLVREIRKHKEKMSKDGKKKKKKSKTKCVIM

`Nc1nc2c(-c3c(C(F)(F)F)cc4c(N5CC6CCC(C5)N6)nc(OC[C@@H]5COCCO5)nc4c3F)ccc(F)c2s1` [Example E219, 4-(2-(((S)-1,4-dioxan-2-yl)methoxy)-4-(3,8-diazabicyclo[3.2.1]octan-3-yl)-8-fluoro-6-(trifluoromethyl)quinazolin-7-yl)-7-fluorobenzo[d]thiazol-2-amine]: the IC50 is below 50 nM.
On to `Nc1nc2c(-c3c(C(F)(F)F)cc4c(N5CC6CCC(C5)N6)nc(OCC(F)(F)CO)nc4c3F)ccc(F)c2s1` [Example E153, 3-((7-(2-amino-7-fluorobenzo[d]thiazol-4-yl)-4-(3,8-diazabicyclo [3.2.1]octan-3-yl)-8-fluoro-6-(trifluoromethyl)quinazolin-2-yl)oxy)-2,2-difluoropropan-1-ol], for which the IC50 is below 50 nM.
As for `Cn1nc(N)c(-c2cc3nc(OC[C@@]45CCCN4C[C@H](F)C5)nc(N4CC5CCC(C4)N5)c3cc2Cl)c1C1CC1` [Example E135, 4-(4-(3,8-diazabicyclo[3.2.1]octan-3-yl)-6-chloro-2-(((2R,7aS)-2-fluorotetrahydro-1H-pyrrolizin-7a(5H)-yl)methoxy)quinazolin-7-yl)-5-cyclopropyl-1-methyl-1H-pyrazol-3-amine], the figure is above 1000 nM; as for `Nc1nc2c(-c3c(C(F)(F)F)cc4c(N5CC6CCC(C5)N6)nc(OCC56CC(CO)(C5)C6)nc4c3F)ccc(F)c2s1` [Example E162, (3-(((7-(2-amino-7-fluorobenzo[d]thiazol-4-yl)-4-(3,8-diazabicyclo[3.2.1]octan-3-yl)-8-fluoro-6-(trifluoromethyl)quinazolin-2-yl)oxy)methyl)bicyclo[1.1.1]pentan-1-yl)methanol], below 50 nM; as for `Nc1nc2c(-c3c(C(F)(F)F)cc4c(N5CC6CCC(C5)N6)nc(OCC5C6COCC65)nc4c3F)ccc(F)c2s1` (centres unmarked) [Example E210, 4-(2-((3-oxabicyclo[3.1.0]hexan-6-yl)methoxy)-4-(3,8-diazabicyclo[3.2.1]octan-3-yl)-8-fluoro-6-(trifluoromethyl)quinazolin-7-yl)-7-fluorobenzo[d]thiazol-2-amine], below 50 nM.
As for `COC(C)(CO)COc1nc(N2CC3CCC(C2)N3)c2cc(Cl)c(-c3nc(N)cc(C)c3C(F)(F)F)c(F)c2n1` (centres unmarked) [Example E233, 3-((7-(6-amino-4-methyl-3-(trifluoromethyl)pyridin-2-yl)-4-(3,8-diazabicyclo[3.2.1]octan-3-yl)-6-chloro-8-fluoroquinazolin-2-yl)oxy)-2-methoxy-2-methyl propan-1-ol], the figure is below 50 nM; as for `Nc1nc2c(-c3c(C(F)(F)F)cc4c(N5CC6CCC(C5)N6)nc(OCC5CCCC5O)nc4c3F)ccc(F)c2s1` (centres unmarked) [Example E220], 50 to 100 nM.
With `CC(=O)N1CC(COc2nc(N3CC4CCC(C3)N4)c3cc(Cl)c(-c4nc(N)cc(C)c4C(F)(F)F)c(F)c3n2)C1` [Example E226, 1-(3-(((7-(6-amino-4-methyl-3-(trifluoromethyl)pyridin-2-yl)-4-(3,8-diazabicyclo[3.2.1]octan-3-yl)-6-chloro-8-fluoroquinazolin-2-yl)oxy)methyl)azetidin-1-yl)ethan-1-one], the IC50 was below 50 nM.
As for `CN1C[C@H](F)C[C@]1(C)COc1nc(N2CC3CCC(C2)N3)c2cc(C(F)(F)F)c(-c3ccc(F)c4sc(N)nc34)c(F)c2n1` [Example E103, 4-(4-(3,8-diazabicyclo[3.2.1]octan-3-yl)-8-fluoro-2-(((2R,4R)-4-fluoro-1,2-dimethylpyrrolidin-2-yl)methoxy)-6-(trifluoromethyl)quinazolin-7-yl)-7-fluorobenzo [d]thiazol-2-amine], the figure is below 50 nM; as for `Cc1cc(N)nc(-c2c(Cl)cc3c(N4CC5CCC(C4)N5)nc(OCC4(C)CCCOC4)nc3c2F)c1C(F)(F)F` (centres unmarked) [Example E201, 6-(4-(3,8-diazabicyclo[3.2.1]octan-3-yl)-6-chloro-8-fluoro-2-((3-methyltetrahydro-2H-pyran-3-yl)methoxy)quinazolin-7-yl)-4-methyl-5-(trifluoromethyl)pyridin-2-amine], 100 to 1000 nM; as for `Cc1cc(N)nc(-c2c(C#N)cc3c(N4CC5CCC(C4)N5)nc(OC[C@@]45CCCN4C[C@H](F)C5)nc3c2F)c1C(F)(F)F` [Example E119, 7-(6-amino-4-methyl-3-(trifluoromethyl)pyridin-2-yl)-4-(3,8-diazabicyclo [3.2.1]octan-3-yl)-8-fluoro-2-(((2R,7aS)-2-fluorotetrahydro-1H-pyrrolizin-7a(5H)-yl)methoxy) quinazoline-6-carbonitrile], below 50 nM.
On to `CN1CCCC1(CC#N)COc1nc(N2CC3CCC(C2)N3)c2cc(C(F)(F)F)c(-c3ccc(F)c4sc(N)nc34)c(F)c2n1` (centres unmarked) [Example E121, 2-(2-(((7-(2-amino-7-fluorobenzo[d]thiazol-4-yl)-4-(3,8-diazabicyclo[3.2.1]octan-3-yl)-8-fluoro-6-(trifluoromethyl)quinazolin-2-yl)oxy)methyl)-1-methylpyrrolidin-2-yl)acetonitrile], for which the IC50 is below 50 nM.
As for `Cc1cc(N)nc(-c2cc3nc(OC[C@@]45CCCN4C[C@H](F)C5)nc(N4CC5CCC(C4)N5)c3cc2Cl)c1C(F)(F)F` [Example E117, 6-(4-(3,8-diazabicyclo[3.2.1]octan-3-yl)-6-chloro-2-(((2R,7aS)-2-fluorotetrahydro-1H-pyrrolizin-7a(5H)-yl)methoxy)quinazolin-7-yl)-4-methyl-5-(trifluoromethyl)pyridin-2-amine], the figure is below 50 nM.
In the case of `CC(F)(F)C1(COc2nc(N3CC4CCC(C3)N4)c3cc(C(F)(F)F)c(-c4ccc(F)c5sc(N)nc45)c(F)c3n2)COC1` [Example E180, 4-(4-(3,8-diazabicyclo[3.2.1]octan-3-yl)-2-((3-(1,1-difluoroethyl)oxetan-3-yl)methoxy)-8-fluoro-6-(trifluoromethyl)quinazolin-7-yl)-7-fluorobenzo[d]thiazol-2-amine] it was below 50 nM; in that of `Nc1nc2c(-c3c(C(F)(F)F)cc4c(N5CC6CCC(C5)N6)nc(OCC5CCOC5)nc4c3F)ccc(F)c2s1` (centres unmarked) [Example E145, 4-(4-(3,8-diazabicyclo[3.2.1]octan-3-yl)-8-fluoro-2-((tetrahydrofuran-3-yl)methoxy)-6-(trifluoromethyl)quinazolin-7-yl)-7-fluorobenzo [d]thiazol-2-amine], below 50 nM.
In the case of `CN1C[C@H](F)C[C@H]1COc1nc(N2CC3CCC(C2)N3)c2cc(C(F)(F)F)c(-c3ccc(F)c4sc(N)c(C#N)c34)c(F)c2n1` [Example E111, 4-(4-(3,8-diazabicyclo[3.2.1]octan-3-yl)-8-fluoro-2-(((2S,4R)-4-fluoro-1-methylpyrrolidin-2-yl)methoxy)-6-(trifluoromethyl)quinazolin-7-yl)-2-amino-7-fluoro benzo[b]thiophene-3-carbonitrile] it was below 50 nM; in that of `CC(F)(F)c1c(Cl)cc(N)nc1-c1c(Cl)cc2c(N3CC4CCC(C3)N4)nc(OC[C@@]34CCCN3C[C@H](F)C4)nc2c1F` [Example E130, 6-(4-(3,8-diazabicyclo[3.2.1]octan-3-yl)-6-chloro-8-fluoro-2-(((2R,7aS)-2-fluorotetrahydro-1H-pyrrolizin-7a(5H)-yl)methoxy)quinazolin-7-yl)-4-chloro-5-(1,1-difluoroethyl)pyridin-2-amine], below 50 nM; in that of `Nc1nc2c(-c3cc4nc(OC[C@@]56CCCN5C[C@H](F)C6)nc(N5CC6CCC(C5)N6)c4cc3C(F)(F)F)ccc(F)c2s1` [Example E128, 4-(4-(3,8-diazabicyclo[3.2.1]octan-3-yl)-2-(((2R,7aS)-2-fluorotetra hydro-1H-pyrrolizin-7a(5H)-yl)methoxy)-6-(trifluoromethyl)quinazolin-7-yl)-7-fluorobenzo[d] thiazol-2-amine], below 50 nM.
In the case of `Nc1nc2c(-c3c(C(F)(F)F)cc4c(N5CC6CCCC(C5)N6)nc(OC[C@@]56CCCN5C[C@H](F)C6)nc4c3F)ccc(F)c2s1` [Example E90, 4-(4-(3,9-diazabicyclo[3.3.1]nonan-3-yl)-8-fluoro-2-(((2R,7aS)-2-fluorotetrahydro-1H-pyrrolizin-7a(5H)-yl)methoxy)-6-(trifluoromethyl)quinazolin-7-yl)-7-fluorobenzo[d]thiazol-2-amine], the IC50 was below 50 nM.
With `N#CC1(COc2nc(N3CC4CCC(C3)N4)c3cc(C(F)(F)F)c(-c4ccc(F)c5sc(N)nc45)c(F)c3n2)CC1` [Example E147, 1-(((7-(2-amino-7-fluorobenzo[d]thiazol-4-yl)-4-(3,8-diazabicyclo [3.2.1]octan-3-yl)-8-fluoro-6-(trifluoromethyl)quinazolin-2-yl)oxy)methyl)cyclopropane-1-carbonitrile], the IC50 is below 50 nM.
As for `Nc1nc2c(-c3c(C(F)(F)F)cc4c(N5CC6CCC(C5)N6)nc(OCC5(CO)CC(F)C5)nc4c3F)ccc(F)c2s1` (centres unmarked) [Example E158, (1-(((7-(2-amino-7-fluorobenzo[d]thiazol-4-yl)-4-(3,8-diazabicyclo[3.2.1]octan-3-yl)-8-fluoro-6-(trifluoromethyl)quinazolin-2-yl)oxy)methyl)-3-fluorocyclobutyl)methanol], the figure is below 50 nM; as for `COCC(C#N)(CO)COc1nc(N2CC3CCC(C2)N3)c2cc(Cl)c(-c3nc(N)cc(C)c3C(F)(F)F)c(F)c2n1` (centres unmarked) [Example E204, 3-((7-(6-amino-4-methyl-3-(trifluoromethyl)pyridin-2-yl)-4-(3,8-diazabicyclo [3.2.1]octan-3-yl)-6-chloro-8-fluoroquinazolin-2-yl)oxy)-2-(hydroxymethyl)-2-(methoxymethyl)propanenitrile], below 50 nM.
In the case of `Cc1cc(N)nc(-c2c(Cl)cc3c(N4CC5CCC(C4)N5)nc(OCC4(CO)CCOC4)nc3c2F)c1C(F)(F)F` (centres unmarked) [Example E230, (3-(((7-(6-amino-4-methyl-3-(trifluoromethyl)pyridin-2-yl)-4-(3,8-diazabicyclo[3.2.1]octan-3-yl)-6-chloro-8-fluoroquinazolin-2-yl)oxy)methyl)tetrahydrofuran-3-yl)methanol] it was below 50 nM.
